Test results taken from ChEMBL document CHEMBL5136995, “Structure-based optimization of hydroxylactam as potent, cell-active inhibitors of lactate dehydrogenase” (Bioorg Med Chem Lett, 2022).
pIC50: −log10 of the molar value.

Tests used:
[1] = biological target: L-lactate dehydrogenase A chain (Homo sapiens, UniProt P00338); assay: Inhibition of LDHA (unknown origin)
[2] = biological target: L-lactate dehydrogenase B chain (Homo sapiens, UniProt P07195); assay: Inhibition of LDHB (unknown origin)
L-lactate dehydrogenase B chain, sequence (P07195 whole entry): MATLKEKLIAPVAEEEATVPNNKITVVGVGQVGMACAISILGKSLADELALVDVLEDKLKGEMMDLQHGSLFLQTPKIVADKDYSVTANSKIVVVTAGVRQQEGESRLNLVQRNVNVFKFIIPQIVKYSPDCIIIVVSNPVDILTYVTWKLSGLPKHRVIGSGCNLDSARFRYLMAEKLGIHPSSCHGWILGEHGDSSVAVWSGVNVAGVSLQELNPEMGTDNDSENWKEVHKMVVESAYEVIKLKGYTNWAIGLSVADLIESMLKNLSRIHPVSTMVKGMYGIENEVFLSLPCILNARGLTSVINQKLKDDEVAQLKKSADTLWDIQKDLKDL

[3] = Inhibition of lactate production in human MIA PaCa-2 cells; assay type: functional, cell-based
[4] = Lipophilicity, logD of compound; assay type: physicochemical; conditions: octanol/water
[5] = Cmax in mouse at 200 mg/kg, po; assay type: ADME, organism-based; design: dose 200 mg/kg, route po; conditions: in vivo
[6] = Cmax in mouse at 5 mg/kg, po; assay type: ADME, organism-based; design: dose 5 mg/kg, route po; conditions: in vivo
[7] = Volume of distribution at steady state in mouse at 1 mg/kg, iv; assay type: ADME, organism-based; conditions: in vivo, read-out: Vdss
[8] = AUC in mouse at 50 mg/kg, po; assay type: ADME, organism-based; design: dose 50 mg/kg, route po; conditions: in vivo
[9] = Oral bioavailability in mouse at 5 mg/kg; assay type: ADME, organism-based; conditions: in vivo
[10] = Cmax in mouse at 1 mg/kg, iv; assay type: ADME, organism-based; design: dose 1 mg/kg, route iv; conditions: in vivo
[11] = Toxicity in mouse xenografted with human MIA PaCa-2 cells assessed as effect on body weight at 200 to 400 mg/kg administered twice a day for 28 days; assay type: organism-based; conditions: in vivo, 672 h, dose 200-400 mg/kg, time 28 day
[12] = AUC in mouse at 100 mg/kg, po; assay type: ADME, organism-based; design: dose 100 mg/kg, route po; conditions: in vivo
[13] = Half-life in mouse at 1 mg/kg, iv; assay type: ADME, organism-based; conditions: in vivo
[14] = Clearance in mouse at 1 mg/kg, iv; assay type: ADME, organism-based; conditions: in vivo
[15] = Apparent permeability across apical to basolateral side in MDCK cells at 100 uM by HPLC analysis; assay type: ADME, cell-based, Canis lupus familiaris; conditions: dog
[16] = AUC in mouse at 1 mg/kg, iv; assay type: ADME, organism-based; design: dose 1 mg/kg, route iv; conditions: in vivo
[17] = Plasma protein binding in mouse; assay type: ADME, cell-free; conditions: read-out: PPB
[18] = Cmax in mouse at 100 mg/kg, po; assay type: ADME, organism-based; design: dose 100 mg/kg, route po; conditions: in vivo
[19] = AUC in mouse at 200 mg/kg, po; assay type: ADME, organism-based; design: dose 200 mg/kg, route po; conditions: in vivo
[20] = AUC in mouse at 5 mg/kg, po; assay type: ADME, organism-based; design: dose 5 mg/kg, route po; conditions: in vivo
[21] = Cmax in mouse at 50 mg/kg, po; assay type: ADME, organism-based; design: dose 50 mg/kg, route po; conditions: in vivo

Row | Structure (SMILES) | pIC50 [1] | further results
1 | O=C1OC(c2ccccc2)(c2ccsc2)CC(O)=C1Sc1ccccc1Cl (stereo in doubt; 5) | 7.05 | 
2 | O=C1OC(c2ccccc2)(c2cscn2)CC(O)=C1Sc1ccccc1Cl (stereo in doubt; 10) | 5.96 | pIC50 [2]: 5.55
3 | O=C1OC(c2ccsc2)(c2ccccn2)CC(O)=C1Sc1ccccc1Cl (stereo in doubt; 11) | 6.89 | pIC50 [2]: 6.27
4 | Nc1cccc(C2(c3ccccc3)CC(O)=C(Sc3ccccc3Cl)C(=O)O2)c1 (stereo in doubt; 22) | 6.89 | pIC50 [2]: 6.60
5 | O=C1OC(c2ccsc2)(c2ccccc2O)CC(O)=C1Sc1ccccc1Cl (stereo in doubt; 16) | 8.66 | 
6 | O=C1NC(c2cccc(Nc3ccc(F)c(F)c3)n2)(c2cccc(Oc3ccccc3)n2)CC(O)=C1Sc1ccccc1Cl (stereo in doubt; 45) | 8.49 | 
7 | O=C1OC(c2ccsc2)(c2ccccn2)CC(O)=C1Sc1ccccc1Cl (stereo in doubt; 12) | 6.01 | pIC50 [2]: 5.49
8 | O=C1OC(c2ccccc2)(c2ccsc2)CC(O)=C1Sc1ccccc1Cl (stereo in doubt; 6) | 6.37 | 
9 | O=C1OC(c2ccccc2)(c2cccs2)CC(O)=C1Sc1ccccc1Cl (stereo in doubt; 8) | 6.66 | pIC50 [2]: 5.82
10 | Nc1cccc(C2(c3ccsc3)CC(O)=C(Sc3ccccc3Cl)C(=O)O2)c1 (stereo in doubt; 21) | 6.72 | 
11 | O=C1NC(c2cccc(Nc3ccc(F)c(F)c3)n2)(c2cccc(NC3CCOCC3)n2)CC(O)=C1Sc1ccccc1Cl (stereo in doubt; 36) | 8.57 | pIC50 [3]: 5.14; logD [4]: 2.4
12 | O=C1OC(c2ccccc2)(c2cscn2)CC(O)=C1Sc1ccccc1Cl (stereo in doubt; 9) | 6.74 | pIC50 [2]: 6.26
13 | O=C1NC(c2cccc(Nc3ccc(F)c(F)c3)n2)(c2cccc(Oc3cccc4ncccc34)n2)CC(O)=C1Sc1ccccc1Cl (stereo in doubt; 46) | 8.42 | pIC50 [3]: 5.44; pIC50 [2]: 7.60; logD [4]: 2.2
14 | O=C1NC(c2ccc(N3CCOCC3)cc2)(c2cccc(Nc3ccc(F)cc3)n2)CC(O)=C1Sc1ccccc1Cl (stereo in doubt; 49) | 7.96 | 
15 | O=C1OC(c2ccccc2)(c2ccccn2)CC(O)=C1Sc1ccccc1Cl (stereo in doubt; 2) | 6.04 | 
16 | O=C1OC(c2ccccn2)(c2ccccn2)CC(O)=C1Sc1ccccc1Cl | 5.92 | pIC50 [2]: 5.54
17 | O=C1N[C@](c2cccc(Nc3ccc(F)cc3)n2)(c2cccc(Nc3ccc(F)c(F)c3)n2)CC(O)=C1Sc1ccccc1Cl | 8.80 | Cmax [5]: 117 µM; Cmax [6]: 5.95 µM; Vd [7]: 0.671 L/kg; AUC [8]: 71.2 µM·h; pIC50 [3]: 5.70; bioavailability [9]: 59.5%; Cmax [10]: 7.36 µM; Activity [11]: Non-Toxic; AUC [12]: 235 µM·h; half-life [13]: 2.81 h; clearance [14]: 4.89 mL/min/kg; logD [4]: 2.2; Papp A→B at 100 µM [15]: 4.6 ×10⁻⁶ cm/s; AUC [16]: 6.5 µM·h; fraction unbound [17]: 0.001; Cmax [18]: 66.9 µM; AUC [19]: 411 µM·h; AUC [20]: 19.4 µM·h; Cmax [21]: 23.3 µM
18 | O=C1O[C@@](c2ccsc2)(c2cccc(Nc3ccc(F)cc3)c2)CC(O)=C1Sc1ccccc1Cl | 8.40 | 
19 | O=C1NC(c2ccc(N3CCOCC3)cc2)(c2cccc(Oc3ccc(F)cc3)n2)CC(O)=C1Sc1ccccc1Cl (stereo in doubt; 51) | 7.43 | 
20 | O=C1OC(c2ccsc2)(c2cccc(Nc3ccc(F)cc3)n2)CC(O)=C1Sc1ccccc1Cl (stereo in doubt; 30) | 8.54 | 
21 | O=C1OC(c2ccsc2)(c2cccc(Nc3ccc(F)cn3)c2)CC(O)=C1Sc1ccccc1Cl (stereo in doubt; 29) | 7.20 | 
22 | O=C1OC(c2ccccc2)(c2cccs2)CC(O)=C1Sc1ccccc1Cl (stereo in doubt; 7) | 6.92 | pIC50 [2]: 5.89
23 | O=C1OC(c2ccsc2)(c2cccc(Nc3ccc(F)cn3)c2)CC(O)=C1Sc1ccccc1Cl (stereo in doubt; 28) | 8.54 | 
24 | O=C1NC(c2ccc(N3CCOCC3)cc2)(c2cccc(Oc3ccc(F)cc3)n2)CC(O)=C1Sc1ccccc1Cl (stereo in doubt; 50) | 8.74 | pIC50 [3]: 5.77; logD [4]: 1.9; Papp A→B at 100 µM [15]: 2.2 ×10⁻⁶ cm/s; fraction unbound [17]: 0.001
25 | O=C1NC(c2cccc(NCCC3CC3)n2)(c2cccc(Nc3ccc(F)c(F)c3)n2)CC(O)=C1Sc1ccccc1Cl (stereo in doubt; 41) | 6.72 | 
26 | Nc1cccc(C2(c3ccsc3)CC(O)=C(Sc3ccccc3Cl)C(=O)O2)c1 (stereo in doubt; 20) | 7.89 | 

Row | Structure (SMILES) | pIC50 [1] | further results
27 | O=C1OC(c2ccccc2)(c2ccccc2)CC(O)=C1Sc1ccccc1Cl | 6.00 | pIC50 [2]: 5.51
28 | O=C1NC(c2ccsc2)(c2cccc(Nc3ccc(F)c(F)c3)n2)CC(O)=C1Sc1ccccc1Cl (stereo in doubt; 38) | 8.00 | pIC50 [3]: 5.04; logD [4]: 1.1
29 | O=C1OC(c2ccccc2)(c2ccccc2O)CC(O)=C1Sc1ccccc1Cl (stereo in doubt; 15) | 6.37 | pIC50 [2]: 6.02
30 | O=C1OC(c2ccsc2)(c2ccccc2F)CC(O)=C1Sc1ccccc1Cl (stereo in doubt; 19) | 6.35 | 
31 | O=C1O[C@](c2ccsc2)(c2cccc(Nc3ccc(F)cc3)c2)CC(O)=C1Sc1ccccc1Cl | 7.44 | 
32 | O=C1OC(c2ccsc2)(c2cccc(Nc3ccc(F)cc3)n2)CC(O)=C1Sc1ccccc1Cl (stereo in doubt; 31) | 8.16 | 
33 | O=C1NC(c2ccsc2)(c2cccc(Nc3ccc(F)c(F)c3)n2)CC(O)=C1Sc1ccccc1Cl (stereo in doubt; 39) | 7.12 | 
34 | Nc1cccc(C2(c3ccccc3)CC(O)=C(Sc3ccccc3Cl)C(=O)O2)c1 (stereo in doubt; 23) | 6.35 | pIC50 [2]: 5.42
35 | O=C1OC(c2ccsc2)(c2ccccc2F)CC(O)=C1Sc1ccccc1Cl (stereo in doubt; 18) | 6.66 | 
36 | O=C1NC(c2cccc(Nc3ccc(F)c(F)c3)n2)(c2cccc(NC3CCOCC3)n2)CC(O)=C1Sc1ccccc1Cl (stereo in doubt; 37) | 7.26 | 
37 | O=C1OC(c2ccccc2)(c2ccccc2O)CC(O)=C1Sc1ccccc1Cl (stereo in doubt; 14) | 7.59 | pIC50 [2]: 7.12
38 | CC(=O)Nc1cccc(C2(c3ccsc3)CC(O)=C(Sc3ccccc3Cl)C(=O)O2)c1 (racemic) | 7.37 | 
39 | O=C1NC(c2cccc(NCCC3CC3)n2)(c2cccc(Nc3ccc(F)c(F)c3)n2)CC(O)=C1Sc1ccccc1Cl (stereo in doubt; 40) | 7.89 | 
40 | O=C1NC(c2cccc(Nc3ccc(F)c(F)c3)n2)(c2cccc(Oc3ccccc3)n2)CC(O)=C1Sc1ccccc1Cl (stereo in doubt; 44) | 8.60 | pIC50 [3]: 5.28; logD [4]: 2.6
41 | O=C1OC(c2cccs2)(c2cccs2)CC(O)=C1Sc1ccccc1Cl | 7.05 | 
42 | O=C1N[C@@](c2cccc(Nc3ccc(F)cc3)n2)(c2cccc(Nc3ccc(F)c(F)c3)n2)CC(O)=C1Sc1ccccc1Cl | 8.43 | 
43 | O=C1NC(c2cccc(Nc3ccc(F)c(F)c3)n2)(c2cccc(NC3CCCCC3)n2)CC(O)=C1Sc1ccccc1Cl (stereo in doubt; 35) | 8.36 | 
44 | O=C1OC(c2ccsc2)(c2cccc(NCC(F)(F)F)c2)CC(O)=C1Sc1ccccc1Cl (racemic) | 7.18 | 
45 | O=C1NC(c2ccc(N3CCOCC3)cc2)(c2cccc(Nc3ccc(F)cc3)n2)CC(O)=C1Sc1ccccc1Cl (stereo in doubt; 48) | 8.60 | logD [4]: 2
46 | O=C1NC(c2cccc(Nc3ccc(F)c(F)c3)n2)(c2cccc(NC3CCCCC3)n2)CC(O)=C1Sc1ccccc1Cl (stereo in doubt; 34) | 9.05 | pIC50 [3]: 5.66; logD [4]: 2.6
47 | O=C1OC(c2ccsc2)(c2ccccc2O)CC(O)=C1Sc1ccccc1Cl (stereo in doubt; 17) | 7.66 | 
48 | O=C1NC(c2cccc(NCc3ccc(F)cc3)n2)(c2cccc(Nc3ccc(F)c(F)c3)n2)CC(O)=C1Sc1ccccc1Cl (stereo in doubt; 42) | 8.07 | logD [4]: 2.5
49 | O=C1NC(c2cccc(NCc3ccc(F)cc3)n2)(c2cccc(Nc3ccc(F)c(F)c3)n2)CC(O)=C1Sc1ccccc1Cl (stereo in doubt; 43) | 6.80 | 
50 | O=C1OC(c2ccccc2)(c2ccccn2)CC(O)=C1Sc1ccccc1Cl (stereo in doubt; 3) | 5.62 | 
51 | O=C1NC(c2cccc(Nc3ccc(F)c(F)c3)n2)(c2cccc(Oc3cccc4ncccc34)n2)CC(O)=C1Sc1ccccc1Cl (stereo in doubt; 47) | 7.17 | pIC50 [2]: 6.19
